Laboratory results reported in patent publication US11185527B2, “Methods and compositions relating to steroid hormone receptor-dependent cancers” (Wayne State University, priority 2017, dated 2021).

Assays:
22Rv1 CRPC cells = experiment: Colony growth assay; assay type: cell-based, human
Description: FIGS. 4A, 4B, 4C, 4D, 4E, 4F, 4G, and 4H relate to inhibition of AR-dependent PC/CRPC clonogenic survival and cell growth by KCI807 and comparison with enzalutamide. FIG. 4A is an image of 22Rv1 cells that were seeded in phenol red-free growth media and treated with the indicated concentration of KCI807, replenishing the treatments every 48h. Colonies were stained with crystal violet 10 days after plating. Treatments were conducted in triplicate. Representative images are shown. FIG. 4B is a graph showing data from replicate colony formation assays shown in FIG. 4A are plotted as a histogram. Each bar represents the average number of colonies for each triplicate treatment. Cells were trypsinized, and 1000 cells/well were seeded in poly-D-lysine coated 6-well plates in phenol red-free regular growth media. The cells were treated with the indicated concentration of KCI807, which was replenished every 48h. The cells were grown at 37° C. in 5% CO2 for 10 days until colonies-grew to the desired size in the untreated control wells. Colonies were fixed with methanol and stained with crystal violet. Each treatment was conducted in triplicate and the number of colonies was counted using the GelCount™ colony counter and a 350 size cutoff.

Full length human AR = biological target: T1, Full length human AR (Homo sapiens, UniProt P10275); experiment: Surface plasmon resonance, compound (analyte) binding to immobilized AR; settings: SPR, compound as analyte
T1 construct: Full length human AR expressed in insect cells; purchased Abcam (Cambridge Mass.) ab82609; host or cells: insect cells
T1 sequence (P10275 1-920): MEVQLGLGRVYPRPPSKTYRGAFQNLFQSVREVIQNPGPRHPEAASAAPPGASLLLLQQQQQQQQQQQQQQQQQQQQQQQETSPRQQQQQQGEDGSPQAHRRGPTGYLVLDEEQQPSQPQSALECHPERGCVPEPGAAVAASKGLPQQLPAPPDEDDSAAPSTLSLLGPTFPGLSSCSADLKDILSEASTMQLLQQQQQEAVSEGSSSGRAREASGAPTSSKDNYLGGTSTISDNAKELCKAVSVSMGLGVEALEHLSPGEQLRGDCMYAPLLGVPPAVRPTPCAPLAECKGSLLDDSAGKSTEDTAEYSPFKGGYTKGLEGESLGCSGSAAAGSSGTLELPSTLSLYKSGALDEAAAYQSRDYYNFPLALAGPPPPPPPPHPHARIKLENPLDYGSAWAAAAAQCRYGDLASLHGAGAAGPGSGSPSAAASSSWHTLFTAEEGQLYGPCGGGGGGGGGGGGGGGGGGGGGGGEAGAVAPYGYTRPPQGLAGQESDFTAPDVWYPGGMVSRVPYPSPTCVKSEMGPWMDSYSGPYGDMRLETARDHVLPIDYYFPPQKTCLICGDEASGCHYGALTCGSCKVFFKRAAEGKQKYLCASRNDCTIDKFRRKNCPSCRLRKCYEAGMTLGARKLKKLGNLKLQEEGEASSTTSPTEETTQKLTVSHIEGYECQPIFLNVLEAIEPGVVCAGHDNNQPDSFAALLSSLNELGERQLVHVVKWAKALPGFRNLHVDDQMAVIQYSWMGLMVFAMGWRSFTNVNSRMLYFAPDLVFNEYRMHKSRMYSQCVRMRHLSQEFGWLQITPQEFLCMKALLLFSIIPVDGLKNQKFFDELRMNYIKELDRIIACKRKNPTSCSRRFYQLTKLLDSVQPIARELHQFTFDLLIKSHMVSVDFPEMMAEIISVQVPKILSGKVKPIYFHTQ
Description: FIG. 2A is a graph showing surface plasmon resonance (SPR) kinetic curves for quantitative analyses of KCI807 binding to AR.
The proteins were eluted with 200 mM imidazole and dialysed against […], pH 7.9 containing 10% glycerol, 20 mM KCl, 2 mM MgCl2, 0.2 mM EDTA, 0.5 mM benzamidine and 0.5 mM DTT.
Amine Coupling Kit, CM5 sensor chip and HBS-N buffer (GE Healthcare) were used for surface plasmon resonance (SPR) analysis. The rate and equilibrium binding constants of the interaction of AR with KCI807 was determined using Biacore 3000 (Biacore, Piscataway, N.J.). […] The immobilization involved activation of carboxymethyl groups on a dextran-coated chip by reaction with N-hydroxysuccinimide, followed by covalent bonding of the ligand (AR) to the chip surface via amide linkages. Reference surfaces were prepared in the same manner but blocked with ethanolamine and thus contained no ligand. […] The interaction (response units, RU) between analyte and ligand was recorded as the ligand RU minus the reference RU. Kinetic values were determined using BIAevaluation software (Biacore), and the data were fitted with the model showing closest match, according to methods described in Drescher DG et al., Methods Mol. Biol., (Clifton, N. J.). […] A 1:1 Langmuir binding model was generally selected, in which all the sensorgrams representing the different analyte concentrations were fitted simultaneously with the wide window of association and dissociation phases. Individual concentration curves were also evaluated to confirm the fitting data. The equilibrium dissociation constant (Kd) was calculated by kd=koff/kon. In all cases, baseline was established in the presence of the vehicle used for the compounds (DMSO) appropriately diluted in BBS-N buffer.

binding of ER to ELK1 = experiment: SPR competition: inhibition of binding of ER (analyte) to immobilized ELK1; settings: ER 200 nM, compound 0-32 uM
Description: A fixed concentration of ER (200 nM) was combined with 5,3′-Dihydroxyflavone diluted in a series (0, 1, 2,4, 8, 16, and 32 uM).
A fixed concentration of ER (200 nM) was combined with 5,3′-Dihydroxyflavone diluted in a series (0, 1, 2, 4, 8, 16, and 32 uM). […] This explains the ability of the compound to inhibit the estrogen-dependent growth of breast cancer cells, as ELK1 is required for estrogen-dependent growth of breast cancer cells.

[1] = test system: protein level of AR or AR-V7; experiment: Western blot of AR in LNCaP, VCaP and 22Rv1 cells; assay type: cell-based; settings: VCaP, 10 μM, 24h
Description: Protein lysates were extracted after 24h of treatment and probed using antibodies to AR and GAPDH (loading control).
The treated cells were washed once with phosphate buffered saline (PBS) and then lysed with RIPA buffer (150 mM NaCl, 1% Nonidet P-40, 0.5% sodium deoxycholate, 0.1% SDS, 50 mM Tris of pH 8.0) containing a protease inhibitor cocktail (Pierce, Thermo Fisher Scientific). The cell lysates were then incubated on ice for 40 minutes and vortexed every 10 minutes. Total protein concentrations were estimated using the Bradford Assay (Bio-Rad). Ten micrograms of each protein sample was heated at 95° C. for 5 minutes and resolved by electrophoresis on 8% polyacrylamide-SDS gels and electrophoretically transferred to PVDF membranes (Millipore, Billerica, Mass.). The membranes were then probed overnight at 4° C. with the appropriate primary antibody followed by the appropriate horseradish peroxidase-conjugated secondary antibody. The blots were then developed to visualize the protein bands using the HyGLO

O=c1cc(-c2cccc(O)c2)oc2cccc(O)c12 [KCI807, 5,3′-dihydroxyflavone]
colony growth inhibition (in words) (22Rv1 CRPC cells; 22Rv1, beyond 125 nM compound): virtually completely inhibited | IC50 (22Rv1 CRPC cells; Homo sapiens, 22Rv1, 10 days, treatment replenished every 48h, read-out: IC50 of colony growth inhibition): 0.0331 µM | koff (Full length human AR): 0.00254 s⁻¹ | kon (Full length human AR): 36700 M⁻¹ s⁻¹ | Kd (Full length human AR; kd=koff/kon, read-out: kd (dissociation constant)): 0.0692 µM | inhibition of binding of ER to immobilized ELK1 (binding of ER to ELK1): inhibits the binding of ER to ELK1 | protein level of AR or AR-V7 [1]: in no case did KCI807 treatment alter the protein level
